Six molecules from US20090299044A1 (priority 2006, published 2009) can be followed below.

Assay [1] concerns the target T1, human Kv1.1 (HEK293) (Homo sapiens, UniProt Q09470).
T1 construct: expressed in transfected cells; host or cells: HEK293
The assay is described as follows: cell-based.

Assay [2] concerns the target T2, human Kv1.3 (CHO) (Homo sapiens, UniProt P22001).
T2 construct: expressed in transfected cells; host or cells: CHO
The assay is described as follows: cell-based.

Usually IC50 stands for the concentration that inhibits the measured activity by half. Low values mean higher potency, high ones lower potency.

The structures appear in SMILES notation. Bridge positions count the residues as written; N and C are the ends. Peptide text beside a SMILES is read from it.

T2 sequence (P22001 whole entry): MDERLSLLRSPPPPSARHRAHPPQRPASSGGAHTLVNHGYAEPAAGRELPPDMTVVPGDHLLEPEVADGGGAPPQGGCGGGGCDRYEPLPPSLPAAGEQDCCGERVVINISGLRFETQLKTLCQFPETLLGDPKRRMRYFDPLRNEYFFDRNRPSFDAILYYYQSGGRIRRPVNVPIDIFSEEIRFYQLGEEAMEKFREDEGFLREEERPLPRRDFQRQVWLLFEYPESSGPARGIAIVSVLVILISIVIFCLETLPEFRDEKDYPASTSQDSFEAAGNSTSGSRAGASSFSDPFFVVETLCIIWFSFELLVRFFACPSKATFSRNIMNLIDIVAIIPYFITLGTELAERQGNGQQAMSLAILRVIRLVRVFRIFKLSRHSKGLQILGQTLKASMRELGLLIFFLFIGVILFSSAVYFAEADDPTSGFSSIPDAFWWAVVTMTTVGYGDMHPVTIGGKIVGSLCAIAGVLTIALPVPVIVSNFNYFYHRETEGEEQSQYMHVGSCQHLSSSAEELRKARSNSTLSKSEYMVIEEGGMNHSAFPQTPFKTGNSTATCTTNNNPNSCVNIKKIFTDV
T1 sequence (Q09470 whole entry): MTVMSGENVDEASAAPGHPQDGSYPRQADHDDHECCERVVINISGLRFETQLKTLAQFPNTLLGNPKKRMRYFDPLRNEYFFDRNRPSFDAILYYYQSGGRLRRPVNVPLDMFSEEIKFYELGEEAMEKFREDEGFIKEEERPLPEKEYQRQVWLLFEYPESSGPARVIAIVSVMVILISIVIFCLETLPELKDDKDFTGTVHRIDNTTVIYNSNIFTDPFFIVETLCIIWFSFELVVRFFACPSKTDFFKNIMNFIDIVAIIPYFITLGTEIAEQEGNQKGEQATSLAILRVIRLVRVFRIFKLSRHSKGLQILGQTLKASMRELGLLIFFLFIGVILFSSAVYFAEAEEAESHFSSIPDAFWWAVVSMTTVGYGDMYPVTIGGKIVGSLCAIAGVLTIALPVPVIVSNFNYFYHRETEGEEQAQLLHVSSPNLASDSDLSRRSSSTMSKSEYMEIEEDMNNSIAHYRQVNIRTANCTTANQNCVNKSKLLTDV

In the case of `CC[C@H](C)[C@@H]1NC(=O)[C@H](CCCCN)NC(=O)[C@@H](NC(=O)[C@H](CCCCN)NC(=O)[C@@H](NC(=O)[C@H](CC(N)=O)NC(=O)[C@@H](NC(=O)[C@@H](NC(=O)[C@@H](NC(=O)CN)C(C)C)[C@@H](C)CC)[C@@H](C)CC)C(C)C)CSSC[C@@H]2NC(=O)[C@H](CCCCN)NC(=O)CNC(=O)[C@H](Cc3ccccc3)NC(=O)[C@H](CCCNC(=N)N)NC(=O)[C@H](CCSC)NC(=O)CNC(=O)[C@H](C)NC(=O)[C@H](CCCCN)NC(=O)[C@H](CCCCN)NC(=O)[C@@H]3CSSC[C@@H](C(=O)N[C@H](C(=O)N4CCC[C@H]4C(=O)N[C@@H](CCCCN)C(=O)O)[C@@H](C)O)NC(=O)[C@H](Cc4c[nH]cn4)NC(=O)[C@H](CSSC[C@H](NC(=O)[C@H](CCC(N)=O)NC(=O)[C@H](CCCNC(=N)N)NC(=O)[C@H](CO)NC1=O)C(=O)N[C@@H](CC(C)C)C(=O)N[C@@H](CCC(=O)O)C(=O)N1CCC[C@H]1C(=O)N3)NC(=O)[C@H](CCCCN)NC(=O)[C@H](CCCNC(=N)N)NC(=O)[C@H](CC(N)=O)NC(=O)[C@H](CCSC)NC2=O` [G31R], the IC50 turned out to be 1.59 pM in assay [1] and 22.2 pM in assay [2].

Turning to `CC[C@H](C)[C@@H]1NC(=O)[C@H](CCCCN)NC(=O)[C@@H](NC(=O)[C@H](CCCCN)NC(=O)[C@@H](NC(=O)[C@H](CC(N)=O)NC(=O)[C@@H](NC(=O)[C@@H](NC(=O)[C@@H](NC(=O)CN)C(C)C)[C@@H](C)CC)[C@@H](C)CC)C(C)C)CSSC[C@@H]2NC(=O)[C@H](CCCCN)NC(=O)CNC(=O)[C@H](Cc3ccccc3)NC(=O)[C@H](CCCNC(=N)N)NC(=O)[C@H](CCSC)NC(=O)CNC(=O)[C@H](C)NC(=O)[C@H](CCCCN)NC(=O)[C@H](CCCCN)NC(=O)[C@@H]3CSSC[C@@H](C(=O)N[C@H](C(=O)N4CCC[C@H]4C(=O)N[C@@H](CCCCN)C(=O)O)[C@@H](C)O)NC(=O)[C@H](CCCNC(=N)N)NC(=O)[C@H](CSSC[C@H](NC(=O)[C@H](CCC(N)=O)NC(=O)[C@H](CCCNC(=N)N)NC(=O)[C@H](CO)NC1=O)C(=O)N[C@@H](CC(C)C)C(=O)N[C@@H](CCC(=O)O)C(=O)N1CCC[C@H]1C(=O)N3)NC(=O)[C@H](CCCCN)NC(=O)CNC(=O)[C@H](CC(N)=O)NC(=O)[C@H](CCSC)NC2=O` [H34R] (H-GVIINVKCKISRQCLEPCKKAGMRFGKCMNGKCRCTPK-OH; disulfide 8-28, 14-33, 18-35), the IC50 in assay [1] was determined as 4.49 pM; in assay [2], 13.6 pM.

As for `CC[C@H](C)[C@H](NC(=O)[C@H](C)NC(=O)[C@@H](NC(=O)CN)C(C)C)C(=O)N[C@@H](CC(N)=O)C(=O)N[C@H](C(=O)N[C@@H](CCCCN)C(=O)N[C@H]1CSSC[C@@H]2NC(=O)[C@H](CCCCN)NC(=O)CNC(=O)[C@H](Cc3ccccc3)NC(=O)[C@H](CCCNC(=N)N)NC(=O)[C@H](CCSC)NC(=O)CNC(=O)[C@H](C)NC(=O)[C@H](CCCCN)NC(=O)[C@H](CCCCN)NC(=O)[C@@H]3CSSC[C@@H](C(=O)N[C@H](C(=O)N4CCC[C@H]4C(=O)N[C@@H](CCCCN)C(=O)O)[C@@H](C)O)NC(=O)[C@H](Cc4c[nH]cn4)NC(=O)[C@H](CSSC[C@H](NC(=O)[C@H](CCC(N)=O)NC(=O)[C@H](CCCNC(=N)N)NC(=O)[C@H](CO)NC(=O)[C@H]([C@@H](C)CC)NC(=O)[C@H](CCCCN)NC1=O)C(=O)N[C@@H](CC(C)C)C(=O)N[C@@H](CCC(=O)O)C(=O)N1CCC[C@H]1C(=O)N3)NC(=O)[C@H](CCCCN)NC(=O)CNC(=O)[C@H](CC(N)=O)NC(=O)[C@H](CCSC)NC2=O)C(C)C` [I3A] (H-GVAINVKCKISRQCLEPCKKAGMRFGKCMNGKCHCTPK-OH; disulfide 8-28, 14-33, 18-35), the IC50 came out at 10.6 pM in assay [1] and 96.6 pM in assay [2].

Take `CC[C@H](C)[C@@H]1NC(=O)[C@H](CCCCN)NC(=O)[C@@H](NC(=O)[C@H](CCCCN)NC(=O)[C@@H](NC(=O)[C@H](CC(N)=O)NC(=O)[C@@H](NC(=O)[C@H](CCC(=O)O)NC(=O)[C@@H](NC(=O)CN)C(C)C)[C@@H](C)CC)C(C)C)CSSC[C@@H]2NC(=O)[C@H](CCCCN)NC(=O)CNC(=O)[C@H](Cc3ccccc3)NC(=O)[C@H](CCCNC(=N)N)NC(=O)[C@H](CCSC)NC(=O)CNC(=O)[C@H](C)NC(=O)[C@H](CCCCN)NC(=O)[C@H](CCCCN)NC(=O)[C@@H]3CSSC[C@@H](C(=O)N[C@H](C(=O)N4CCC[C@H]4C(=O)N[C@@H](CCCCN)C(=O)O)[C@@H](C)O)NC(=O)[C@H](Cc4c[nH]cn4)NC(=O)[C@H](CSSC[C@H](NC(=O)[C@H](CCC(N)=O)NC(=O)[C@H](CCCNC(=N)N)NC(=O)[C@H](CO)NC1=O)C(=O)N[C@@H](CC(C)C)C(=O)N[C@@H](CCC(=O)O)C(=O)N1CCC[C@H]1C(=O)N3)NC(=O)[C@H](CCCCN)NC(=O)CNC(=O)[C@H](CC(N)=O)NC(=O)[C@H](CCSC)NC2=O` [I3E] (H-GVEINVKCKISRQCLEPCKKAGMRFGKCMNGKCHCTPK-OH; disulfide 8-28, 14-33, 18-35): the results for the 50% inhibitory concentration (IC50) in assay [1] and in assay [2] were 43 pM and 22 pM, respectively.

As for `CC[C@H](C)[C@@H]1NC(=O)[C@H](CCCCN)NC(=O)[C@@H](NC(=O)[C@H](CCCCN)NC(=O)[C@@H](NC(=O)[C@H](CC(N)=O)NC(=O)[C@@H](NC(=O)[C@H](CCCNC(=N)N)NC(=O)[C@@H](NC(=O)CN)C(C)C)[C@@H](C)CC)C(C)C)CSSC[C@@H]2NC(=O)[C@H](CCCCN)NC(=O)CNC(=O)[C@H](Cc3ccccc3)NC(=O)[C@H](CCCNC(=N)N)NC(=O)[C@H](CCSC)NC(=O)CNC(=O)[C@H](C)NC(=O)[C@H](CCCCN)NC(=O)[C@H](CCCCN)NC(=O)[C@@H]3CSSC[C@@H](C(=O)N[C@H](C(=O)N4CCC[C@H]4C(=O)N[C@@H](CCCCN)C(=O)O)[C@@H](C)O)NC(=O)[C@H](Cc4c[nH]cn4)NC(=O)[C@H](CSSC[C@H](NC(=O)[C@H](CCC(N)=O)NC(=O)[C@H](CCCNC(=N)N)NC(=O)[C@H](CO)NC1=O)C(=O)N[C@@H](CC(C)C)C(=O)N[C@@H](CCC(=O)O)C(=O)N1CCC[C@H]1C(=O)N3)NC(=O)[C@H](CCCCN)NC(=O)CNC(=O)[C@H](CC(N)=O)NC(=O)[C@H](CCSC)NC2=O` [I3R] (H-GVRINVKCKISRQCLEPCKKAGMRFGKCMNGKCHCTPK-OH; disulfide 8-28, 14-33, 18-35), the IC50 in assay [1] came out at 2.47 pM; in assay [2] it was 19.9 pM.

Regarding `CC[C@H](C)[C@@H]1NC(=O)[C@H](CCCCN)NC(=O)[C@@H](NC(=O)[C@H](CCCCN)NC(=O)[C@@H](NC(=O)[C@H](CC(N)=O)NC(=O)[C@H](C)NC(=O)[C@@H](NC(=O)[C@@H](NC(=O)CN)C(C)C)[C@@H](C)CC)C(C)C)CSSC[C@@H]2NC(=O)[C@H](CCCCN)NC(=O)CNC(=O)[C@H](Cc3ccccc3)NC(=O)[C@H](CCCNC(=N)N)NC(=O)[C@H](CCSC)NC(=O)CNC(=O)[C@H](C)NC(=O)[C@H](CCCCN)NC(=O)[C@H](CCCCN)NC(=O)[C@@H]3CSSC[C@@H](C(=O)N[C@H](C(=O)N4CCC[C@H]4C(=O)N[C@@H](CCCCN)C(=O)O)[C@@H](C)O)NC(=O)[C@H](Cc4c[nH]cn4)NC(=O)[C@H](CSSC[C@H](NC(=O)[C@H](CCC(N)=O)NC(=O)[C@H](CCCNC(=N)N)NC(=O)[C@H](CO)NC1=O)C(=O)N[C@@H](CC(C)C)C(=O)N[C@@H](CCC(=O)O)C(=O)N1CCC[C@H]1C(=O)N3)NC(=O)[C@H](CCCCN)NC(=O)CNC(=O)[C@H](CC(N)=O)NC(=O)[C@H](CCSC)NC2=O` [I4A] (H-GVIANVKCKISRQCLEPCKKAGMRFGKCMNGKCHCTPK-OH; disulfide 8-28, 14-33, 18-35), the IC50 is 16.9 pM in assay [1] and 195 pM in assay [2].
